According to paper PMC6406907, “A H2AX–CARP-1 Interaction Regulates Apoptosis Signaling Following DNA Damage” (Cancers, 2019):
No end group written: not given here. HA = not defined here

Columns and labels:
endogenous H2AX = assay: Anti-EGFP co-immunoprecipitation with endogenous H2AX; type: cell-based, human; details: MDA-MB-468 stable subline, anti-EGFP IP, anti-H2AX WB; Figure 5C
Method: Logarithmically growing cells were either untreated or treated with different agents for various time periods. The cells were lysed to prepare protein extracts. IP was carried out by incubating approximately 1 mg of the protein lysate with appropriate antibodies. The immunoprecipitates were then analyzed by SDS-PAGE, followed by WB with respective, interacting protein. For Gst-pulldown, Gst-H2AX or various His-TAT-HA-tagged CARP-1 peptides were generated in Escherichia coli (E. coli) BL21 cells essentially as described by us previously. Briefly, the competent E. coli BL-21 (DE3) pLysS cells were transformed separately with various recombinant pGEX-4T-1 or pTAT-HA constructs. The transformed cells were then subjected to selection by combined presence of ampicillin and chloramphenicol; various isolates for each transformation were obtained and bacterial lysates were characterized for expression of fusion peptides. Cells from each isolate were grown in 4 mL of LB medium containing ampicillin only until the optical density (OD)600 reached 0.4–0.8. Expression of fusion peptides was induced over 2–4 h incubation periods after Isopropyl β-D-1-thiogalactopyranoside (IPTG) addition. […]
Figure 5 Fine Mapping of H2AX/CARP-1 interacting epitopes. […] Following stringent washing, the bound proteins were analyzed with WB using anti-HA (upper) or anti-Gst (middle) antibodies. […]

HeLa cells = assay: Transduction/localization of TAT-tagged proteins, HeLa; type: cell-based, human; details: 300 μg/mL, confocal
Method: Cells were plated onto chamber slides one day before treatment. Following treatment of cells with respective compounds, the adherent cells were fixed with 5% formaldehyde for 10 min and then washed with phosphate buffered saline (PBS). Samples were blocked (0.5% NP-40, 5% milk powder, 1% fetal bovine serum) for 30 min. After a single wash with PBS, cells were incubated with primary antibodies for 45 to 60 min. Coverslips were washed with PBS and then incubated with secondary antibodies for another 45 to 60 min. They were then washed with PBS and mounted with 0.1 μg/mL 4′,6′-diamidino-2-phenylindole (DAPI) containing mounting solution. […]
We further tested whether and the extent to which transient and ectopic expression of CARP-1 (636–650) peptide would also interfere with the cell-growth inhibition by Adriamycin. […] The wild-type MDA-MB-468 or HeLa cells were pre-incubated with His-TAT-HA-EGFP or His-TAT-HA-CARP-1 (636–650) proteins, and presence of GFP and CARP-1 (636–650) was determined by immuno-cytochemical staining followed by photography using a confocal microscope as above. […]
Figure S9. […] Multiple cells from each of the confocal images in the γH2AX column of Figure 8C were subjected to quantitation for levels of γH2AX. The quantitation of the images of stained cells was carried out by using ImageJ software (imagej.nih.gov/ij/plugins/track/jacop2). […]

Substance	in-cell interaction with endogenous H2AX (endogenous H2AX)	cellular localization after transduction (HeLa cells)
EGFP-CARP-1 (636–650): EGFP-tagged fusion protein stably expressed in MDA-MB-468 and HeLa sublines (PKTMKVNDLRKELES; also: EGFP fusion kept, end not given here)	robust, in vivo (in-cell) interaction	–
His-TAT-HA-CARP-1 (636–650): His-TAT-HA-tagged CARP-1 (636–650) peptide, >95% purity, commercially synthesized ({His-TAT-HA}-PKTMKVNDLRKELES; reading uncertain; UniProt Q8IX12 636-650, looked up, fragment)	–	predominantly present in the cytoplasmic region
